Source: patent publication US20210283035A1, “AN ANTIMICROBIAL COMPOSITION” (Conopco, Inc., d/b/a UNILEVER, priority 2016, published 2021)

Test system: Malassezia furfur
Assay: ΣFIC assay against Malassezia furfur (in-vitro susceptibility testing, alamar blue)
Assay type: cell-based
Conditions: CBS1878, active alone, M. furfur CBS 1878 in Pityrosporum Broth, 32° C., complete growth inhibition by alamar blue, read-out: Minimum Inhibition Concentration (MIC)
Method: A brief description of the method is given below.
Methods: ΣFIC Assay Against Malassezia furfur
They are then incubated at 32° C. for 48 hrs with shaking. Then, 1 ml of the first broth culture is transferred into 9 ml of fresh PB and incubated at 32° C. for 48 hrs with shaking. The final culture should contain 2 to 6×10^6 cells/ml. This is achieved by diluting using PB to 5*10^5 cell/ml.
Binary combinations of ZPTO and the testing compound were prepared in 96-well plate by mixing 20 μl of zinc pyrithione solution with 20 μl of testing compound. The solution in each well were further mixed with 160 μl of PB and 20 μl of M. furfur. The final cell density in the testing plate is around 5*10^4 cell/ml, and the final concentration of actives in each well of the 96-wel plate were shown below.
The plate was incubated at 32° C. for one day. Then 20 μl of alamar blue (0.01%) was added into each well with a further incubation for one day to observe the color change. Red color indicates microbial growth and the non-changing blue color indicates no growth.
The MIC is defined as the absolute lowest concentration of active that provides complete microbial growth inhibition as indicated by the blue color of alamar blue under the tested condition. […]

| Structure (SMILES) | MIC |
| --- | --- |
| O=C(c1ccccc1)c1ccc(O)cc1O [benzophenone-1] | 500 µg/mL |
| O=C(c1ccc(O)cc1O)c1ccc(O)cc1O [benzophenone-2] | 1000 µg/mL |
